Experimental data taken from patent US5190957A, “Treatment of multi-drug resistant tumors with quinolyl-and isoquinolyloxazole-2-ones” (Merrell Dow Pharmaceuticals Inc., priority 1992, dated 1993).
Where two headings read alike, the source gives them in different places.

Assays:
[1] = system: CHO^R cells (vinblastine (VBL) resistant tumor cell line); experiment: Reversal of multidrug resistance (MDR) in CHO^R cells: cell growth with test compound with or without vinblastine (VLB); type: cell-based; settings: 72 hr
Protocol: CHO^R cells were plated at a density of 1X105/35mm dish and were allowed to grow overight at 37° C. in a CO2 incubator. The medium was replaced with medium containing the compounds and vinblastine (0.2 μg/ml). The cells were allowed to grow for further 72 hr and the cell number was determined by Coulter counter after trypsiunization.

[2] = system: multidrug-resistant tumors; settings: reported previously; cited from earlier work

In the case of `CC[C@]1(O)C[C@@H]2CN(CCc3c([nH]c4ccccc34)[C@@](C(=O)OC)(c3cc4c(cc3OC)N(C)[C@H]3[C@@](O)(C(=O)OC)[C@H](OC(C)=O)[C@]5(CC)C=CCN6CC[C@]43[C@@H]65)C2)C1` [VLB, vinblastine, reference compound], the “effect on cell growth of VLB alone” value ([1]; VLB alone, 0.2 μg/ml) was “did not have any effect on cell growth”.
For `COC(=O)[C@H]1[C@H]2C[C@@H]3c4[nH]c5cc(OC)ccc5c4CCN3C[C@H]2C[C@@H](OC(=O)c2cc(OC)c(OC)c(OC)c2)[C@@H]1OC` [reserpine], the “reversal of drug resistance in multidrug-resistant tumors” value (“reversal of drug resistance” for short) [2] is listed as “reverse drug resistance”.
In the case of `COc1ccc(CCN(C)CCCC(C#N)(c2ccc(OC)c(OC)c2)C(C)C)cc1OC` (stereo not shown) [verapamil], the “reversal of drug resistance” value [2] is listed as “reverse drug resistance”.
In the case of `CCCc1[nH]c(=O)oc1-c1ccnc2ccccc12` [4-PROPYL-5-(4-QUINOLINYL)-2(3H)-OXAZOLONE], the inhibition at 0.1 µg/mL ([1]; 0.1 μg/ml compound + vinblastine 0.2 μg/ml, read-out: % Inhibition of Cell Growth, Compound + VLB) was 4%, the inhibition at 0.1 µg/mL ([1]; 0.1 μg/ml compound, no VLB, read-out: % Inhibition of Cell Growth, Compound Only) was 0% and the inhibition at 1 µg/mL ([1]; 1 μg/ml compound + vinblastine 0.2 μg/ml, read-out: % Inhibition of Cell Growth, Compound + VLB) was 43%. It also gave an inhibition at 1 µg/mL ([1]; 1 μg/ml compound, no VLB, read-out: % Inhibition of Cell Growth, Compound Only) of 0%, an inhibition at 5 µg/mL ([1]; 5 μg/ml compound + vinblastine 0.2 μg/ml, read-out: % Inhibition of Cell Growth, Compound + VLB) of 93% and an inhibition at 5 µg/mL ([1]; 5 μg/ml compound, no VLB, read-out: % Inhibition of Cell Growth, Compound Only) of 0%. It also gave an inhibition at 10 µg/mL ([1]; 10 μg/ml compound + vinblastine 0.2 μg/ml, read-out: % Inhibition of Cell Growth, Compound + VLB) of 93% and an inhibition at 10 µg/mL ([1]; 10 μg/ml compound, no VLB, read-out: % Inhibition of Cell Growth, Compound Only) of 14%.
For `COc1ccc([C@@H]2Sc3ccccc3N(CCN(C)C)C(=O)[C@@H]2OC(C)=O)cc1` [diltiazem], the “reversal of drug resistance” value [2] is given as “reverse drug resistance”.
In the case of `C=C[C@H]1C[N@@]2CC[C@H]1C[C@@H]2[C@@H](O)c1ccnc2ccc(OC)cc12` [Quinidine], the “reversal of drug resistance” value [2] is listed as “reverse drug resistance”.
